# What was measured:
# [1] = Solid state stability (purity by UPLC); assay type: physicochemical
# Experimental: Compounds 100, 101 and 102 were kept in glass vials at three different locations at temperatures of […], 2-8° C. and −20° C. in order to assess solid state stability at room temperature, refrigerated conditions and in a deep freezer. The compounds from these vials were assessed for purity by UPLC at three different timepoints 0 hrs, 24 hrs and 48 hrs. Table 2 depicts the results obtained for solid state stability at 25° C., 2-8° C. and −20° C. respectively. Purity measurements were made at 0 hrs, 24 hours and 48 hours.
# [2] = Stability in solutions (pH range, simulated gastric fluid, simulated intestinal fluid); assay type: physicochemical
# Experimental: 1 mg/ml solutions of compound 100 were prepared in each buffer, diluted to 0.1 mg/ml in methanol at each time point and analyzed as follows: Gemini C-18, 250×4.6 mm, 5 im, Mobile Phase: Methanol Isocratic Flow Rate: 0.4 mL/min.
# Huh-7 Cells = assay: Cellular NAD+ levels in Huh-7 cells (LCMS/MS); assay type: cell-based; settings: 125 μm, four hours of incubation
# Experimental: Huh-7 Cells, sourced from NCCS Pune, were cultured in RPMI media containing FBS & Antibiotics. Cells from different flasks (80-90% confluent) were pooled into a 15 mL conical tube and centrifuged for 5 mins at 1200 rpm for 5 mins. The supernatant solution was discarded, and the pellet was washed with 5 mL sterile PBS (without Ca^2+ and Mg^2+). The tube was then centrifuged at 1200 rpm for 5 mins and the supernatant was discarded. The cell pellet was resuspended in 7 mL of RPMI media, and a cell count was done using 10 uL of the cell solution. 1.5 million cells from the cell solution were seeded into 1.5 mL microcentrifuge tubes. […] The tubes were placed in racks and gently swirled to mix the compounds into the media containing the cells. These tubes were then incubated for 4 hours in a 37° C. incubator at 5% CO2. After 4 hours of incubation the cells were spun down at 1000 rpm for 10 mins, the supernatant was discarded carefully, and cells were snap frozen in liquid nitrogen. When the samples were run, the extraction of the cells was on ice, cells were lysed using 20 uL deionized water and then ice cold 80% methanol containing the internal standard—Rac-Tenofovir D was added. The tubes were then vortexed at 2500 rpm for 8 minutes and then centrifuged at […] for 10 minutes. 150 uL of the supernatant was carefully transferred to HPLC vials and was analyzed for NAD^+ on the Abscised 4000 Q Trap LCMS/MS system. A C18, 3.5 μm, 2.1×100 mm, Bridge Column was used in the LC. The mobile phase consisted of 10 mM ammonium acetate with 0.1% acetic acid & 0.1% hexylamine as Solvent-A and 10 mM Ammonium acetate with 0.1% acetic acid and 0.1% hexylamine in 95/5 MeOH/H2O as Solvent-B. The gradient used was 0 mins-0.0% B, 0.5 mins-100% B, 1.5 mins-100% B, 3.0 mins-100% B, 3.1 mins-0.0% B, 7.0-STOP. The column flow rate was 0.5 mL/min. The sample injection volume was […].
# [3] = Human hepatocyte clearance; assay type: in vitro ADME; settings: human hepatocytes
# Experimental: A hepatocyte vial was taken out from the liquid nitrogen tank and was thawed in a water bath maintained at 37° C. The thawed cell suspension was transferred into a torsion tube containing 50 mL of thawing media (Xenotech). The thawing media containing hepatocytes was centrifuged at 1000 rpm for 5 min, the supernatant was discarded and the pellet was resuspended in 2 ml of Xenotech OptiIncubate Media. The cells were counted by using a haemocytometer after mixing an aliquot of cell suspension with equal volume of trypan blue. The cell suspension was diluted to a working density of 2 million cells with DMEM media without FBS/incubation media.
# The assay was performed in duplicates (n=2). 150 μL of 2 million cell working stock of hepatocyte cell suspension was added to a 24 well plate and incubated in a 37° C. incubator, with speed of 500 RPM for 10 min. 150 μL of 2 μM working stock of test compound was incubated separately. The reaction at 0, 15, 30, 60 and 90 min was stopped by precipitating 20 μL of incubation mixture with 200 μL of acetonitrile containing internal standard. […] The supernatant was separated and diluted 1:1 with water before injecting in LC-MS/MS analysis.
smiles,measurement,setting,value
"O=C(OC1O[C@H](CO)[C@@H](O)[C@H]1O)c1cccnc1 (stereo partly drawn) [Compound 100, (3R, 4S, 5R)-3,4-dihydroxy-5-(hydroxymethyl) tetrahydrofuran-2-yl nicotinate]",Solid State Stability (% Purity),"[1]; 2-8° C., 0 hr",96.29%
same,Solid State Stability (% Purity),"[1]; 2-8° C., 24 hr",96.32%
same,Solid State Stability (% Purity),"[1]; 2-8° C., 48 hr",96.28%
same,Solid State Stability (% Purity),"[1]; 25° C., 0 hr",96.02%
same,Solid State Stability (% Purity),"[1]; 25° C., 24 hr",96.23%
same,Solid State Stability (% Purity),"[1]; 25° C., 48 hr",96.22%
same,Solid State Stability (% Purity),"[1]; −20° C., 0 hr",96.33%
same,Solid State Stability (% Purity),"[1]; −20° C., 24 hr",96.32%
same,Solid State Stability (% Purity),"[1]; −20° C., 48 hr",96.49%
same,% remaining,"[2]; SGF (simulated gastric fluid), 0 h",100.0%
same,% remaining,"[2]; SGF (simulated gastric fluid), 1 week",43.4%
same,% remaining,"[2]; SGF (simulated gastric fluid), 1 h",99.1%
same,% remaining,"[2]; SGF (simulated gastric fluid), 2 h",89.2%
same,% remaining,"[2]; SGF (simulated gastric fluid), 4 h",79.6%
same,% remaining,"[2]; SGF (simulated gastric fluid), 8 h",65.4%
same,% remaining,"[2]; SGF (simulated gastric fluid), 24 h",71.7%
same,% remaining,"[2]; SGF (simulated gastric fluid), 48 h",55.0%
same,% remaining,"[2]; SIF (simulated intestinal fluid), 0 h",100.0%
same,% remaining,"[2]; SIF (simulated intestinal fluid), 1 week",30.7%
same,% remaining,"[2]; SIF (simulated intestinal fluid), 1 h",76.4%
same,% remaining,"[2]; SIF (simulated intestinal fluid), 2 h",64.5%
same,% remaining,"[2]; SIF (simulated intestinal fluid), 4 h",41.4%
same,% remaining,"[2]; SIF (simulated intestinal fluid), 8 h",40.5%
same,% remaining,"[2]; SIF (simulated intestinal fluid), 24 h",36.7%
same,% remaining,"[2]; SIF (simulated intestinal fluid), 48 h",38.7%
same,% remaining,"[2]; pH 1, 0 h",100.0%
same,% remaining,"[2]; pH 1, 1 week",46.5%
same,% remaining,"[2]; pH 1, 1 h",100.9%
same,% remaining,"[2]; pH 1, 2 h",104.8%
same,% remaining,"[2]; pH 1, 4 h",80.7%
same,% remaining,"[2]; pH 1, 8 h",49.0%
same,% remaining,"[2]; pH 1, 24 h",53.0%
same,% remaining,"[2]; pH 1, 48 h",45.6%
same,% remaining,"[2]; pH 2, 0 h",100.0%
same,% remaining,"[2]; pH 2, 1 week",31.9%
same,% remaining,"[2]; pH 2, 1 h",91.9%
same,% remaining,"[2]; pH 2, 2 h",93.8%
same,% remaining,"[2]; pH 2, 4 h",93.0%
same,% remaining,"[2]; pH 2, 8 h",54.8%
same,% remaining,"[2]; pH 2, 24 h",28.6%
same,% remaining,"[2]; pH 2, 48 h",36.0%
same,% remaining,"[2]; pH 4, 0 h",100.0%
same,% remaining,"[2]; pH 4, 1 week",45.4%
same,% remaining,"[2]; pH 4, 1 h",95.7%
same,% remaining,"[2]; pH 4, 2 h",99.2%
same,% remaining,"[2]; pH 4, 4 h",97.9%
same,% remaining,"[2]; pH 4, 8 h",49.0%
same,% remaining,"[2]; pH 4, 24 h",42.3%
same,% remaining,"[2]; pH 4, 48 h",42.9%
same,% remaining,"[2]; pH 6, 0 h",100.0%
same,% remaining,"[2]; pH 6, 1 week",48.1%
same,% remaining,"[2]; pH 6, 1 h",92.0%
same,% remaining,"[2]; pH 6, 2 h",86.4%
same,% remaining,"[2]; pH 6, 4 h",70.9%
same,% remaining,"[2]; pH 6, 8 h",50.4%
same,% remaining,"[2]; pH 6, 24 h",55.1%
same,% remaining,"[2]; pH 6, 48 h",47.7%
same,% remaining,"[2]; pH 7.4, 0 h",100.0%
same,% remaining,"[2]; pH 7.4, 1 week",34.2%
same,% remaining,"[2]; pH 7.4, 1 h",57.1%
same,% remaining,"[2]; pH 7.4, 2 h",41.1%
same,% remaining,"[2]; pH 7.4, 4 h",37.5%
same,% remaining,"[2]; pH 7.4, 8 h",46.3%
same,% remaining,"[2]; pH 7.4, 24 h",46.0%
same,% remaining,"[2]; pH 7.4, 48 h",36.6%
same,% remaining,"[2]; pH 9, 0 h",100.0%
same,% remaining,"[2]; pH 9, 1 week",9.2%
same,% remaining,"[2]; pH 9, 1 h",17.7%
same,% remaining,"[2]; pH 9, 2 h",7.8%
same,% remaining,"[2]; pH 9, 4 h",7.6%
same,% remaining,"[2]; pH 9, 8 h",7.5%
same,% remaining,"[2]; pH 9, 24 h",6.6%
same,% remaining,"[2]; pH 9, 48 h",8.1%
same,NAD+ level increase compared to untreated cells,Huh-7 Cells,showed an increase
same,half-life at 1 μM,[3],2.38 h
same,hepatocyte CLint at 1 μM,[3],4.86 µL/min/1e6 cells

# Reference: patent US12168673B2 (Mitopower, Inc., priority 2022, dated 2024)
